# Literature values as cited in patent US20200113872A1, “Ifetroban Treatment for Systemic Sclerosis” (Cumberland Pharmaceuticals Inc., priority 2016, published 2020).
# Test system: pulmonary artery banded mice
structure (smiles),measurement,setting,value
"CCCCCNC(=O)c1coc([C@H]2[C@@H](Cc3ccccc3CCC(=O)O)[C@@H]3CC[C@H]2O3)n1 [ifetroban, [1S-(1α,2α,3α,4α)]-2-[[3-[4-[(Pentylamino)carbonyl]-2-oxazolyl]-7-oxabicyclo[2.2.1]hept-2-yl]methyl]-benzenepropanoic acid]",right ventricular expression of anti-fibrotic and muscularization genes,,augmented
same,ratio of the early (E) to late (A) ventricular filling velocities (E/A ratio),one indicator of cardiac efficiency,increased
same,expression of genes associated with inflammation,right ventricle,decreased
same,cardiomyocyte hypertrophy,treatment with ifetroban,reduced
same,right ventricular fibrosis,treatment with ifetroban,reduced
